Experimental data taken from US20210069134A1 (priority 2019, published 2021).
Entries after “also recorded” stand apart in the source; their conditions may differ.

Key:
Assay type in all cases: in vivo, rat
Long Evans Hooded rats [1] = experiment: Elevated Plus Maze (EPM) test after developmental Pb^2+ exposure, acute i.p. drug; conditions: for anxiolytic OTC ratio, sensitivity to drug / EPM track plot and group mean activity (10-min): 43 mg/kg i.p.
Long Evans Hooded rats [2] = experiment: Attention Set-Shift Test (ASST) after developmental Pb^2+ exposure with taurine co-treatment; conditions: for Pb^2+-induced frontoexecutive dysfunctions (ASST task performance), overall: both sexes, 150 ppm Pb^2+ + 0.05% Taurine co-treatment; for errors-to-criterion (ETC), odor (OD) and digging medium (MD) simple discrimination training / trials-to-criterion (TTC), odor (OD) and digging medium (MD) simple discrimination training: vs Control and Perinatal; for rate-of-learning cumulative record across ASST stages: 150 ppm Pb^2+ + Taurine 0.05%
[3] = tested on: prelimbic (PrL), infralimbic (IL), orbital ventral frontal (OV), orbital ventro-lateral (OVL), and hippocampal (HP) brain regions; experiment: LC/MS GABA:Neurotransmitter and Taurine:Neurotransmitter ratios in brain sub-regions after the ASST; conditions: male rats, OVL (all four brain regions), taurine co-treatment
Method: Immediately following the ASST, rats were deeply anesthetized using Isoflurane, then sacrificed, and their brains were extracted in cold physiological buffered saline (PBS) pH 7.4 in under 2-min. The rat whole brains were then transferred into a coronal sectioning steel brain matrix for 175-300 g rodents (Stoelting, Inc. Wood Dale, Ill.). […] The collected brain regions were stored at −80° C. until ready for subsequent neurochemical assessments.
The brain sub-regions were then manually homogenized with sterile glass homogenizers (i.e., total volume 3 mL) using a 10 mg/100 μL (1:10) dilution of 100% acetonitrile ([…]) (Sigma-Aldrich, St Louis, Mo.) as a miscible (i.e., fully dissolvable solution) with a dielectric constant to study the separation of chemicals by mass charge and polarity. Post homogenization, samples were sonicated for 30 sec with a pulse on:off time of 10 sec at an amplitude of 20%, then centrifuged at […] for 5-min at 4° C., and the supernatant collected and stored at −20° C. until ready for LC/MS. […] The mass/charge (m/z) values of neurotransmitters were monitored and peak heights were obtained to compare the amount of neurotransmitters within- and between-samples. The elution was performed with a flow rate of 0.2 mL/min and the neurotransmitters that were eluted from the column were detected in the positive ion mode. […]

[4] = female rats, 150 ppm Pb^2+ + 0.05% Taurine
[5] = female rats, 150 ppm Pb^2+ + 0.05% Taurine in drinking water to PND 22
[6] = female rats, 150 ppm Pb^2+ + 0.05% Taurine, most recovery at ED and ED-Rev
[7] = male rats, 150 ppm Pb^2+ + 0.05% Taurine
[8] = male rats, 150 ppm Pb^2+ + 0.05% Taurine in drinking water to PND 22
[9] = male rats, 150 ppm Pb^2+ + 0.05% Taurine in drinking water to PND 22, listed as taurine
[10] = male rats, 150 ppm Pb^2+ + 0.05% Taurine, listed as taurine

Nc1ccccc1S(=O)(=O)O [TD-103, 2-aminobenzenesulfonic acid]
anxiolytic OTC ratio, sensitivity to drug (Long Evans Hooded rats [1]; control female rats): most sensitive

NCS(=O)(=O)O [TD-102]
anxiolytic OTC ratio, sensitivity to drug (Long Evans Hooded rats [1]; Peri-22 1,000 ppm females): sensitive
anxiolytic OTC ratio, sensitivity to drug (Long Evans Hooded rats [1]; Peri-22 1,000 ppm male rats): only sensitive
anxiolytic OTC ratio, sensitivity to drug (Long Evans Hooded rats [1]; control male rats): most sensitive

NCCS(=O)(=O)O [Taurine, 2-aminoethanesulfonic acid]
Pb^2+-induced frontoexecutive dysfunctions (ASST task performance), overall (Long Evans Hooded rats [2]): recovered these frontoexecutive dysfunctions to levels equivalent to Control rats
Pb^2+-induced frontoexecutive dysfunctions (ASST task performance), overall (Long Evans Hooded rats [2]; listed as taurine): effective in mitigating or at least reducing most; also recorded: sex-dependent recovery
ETC, reacquisition learning (Long Evans Hooded rats [2]; [4]): no differences
TTC, reacquisition learning (Long Evans Hooded rats [2]; [4]): no differences
errors-to-criterion (ETC), OD and MD simple discrimination training (Long Evans Hooded rats [2]; [5]): no differences
trials-to-criterion (TTC), OD and MD simple discrimination training (Long Evans Hooded rats [2]; [5]): no differences
ASST performance, ETC (Long Evans Hooded rats [2]; [6]): recovered these deficits to performance levels comparative to Control males; also recorded: recovered ASST performance to rates comparable to Control female rats
ASST performance, TTC (Long Evans Hooded rats [2]; [6]): recovered these deficits to performance levels comparative to Control males; also recorded: recovered ASST performance to rates comparable to Control female rats
ETC, reacquisition learning (CD-Reacquisition and ID-Reacquisition) (Long Evans Hooded rats [2]; [7]): fewer ETC errors
TTC, reacquisition learning (CD-Reacquisition and ID-Reacquisition) (Long Evans Hooded rats [2]; [7]): recovery from the TTC reacquisition learning impairment
errors-to-criterion (ETC), odor (OD) and digging medium (MD) simple discrimination training (Long Evans Hooded rats [2]; [8]): significant difficulty in learning
trials-to-criterion (TTC), odor (OD) and digging medium (MD) simple discrimination training (Long Evans Hooded rats [2]; [8]): significant difficulty in learning
errors-to-criterion (ETC), odor (OD) and digging medium (MD) simple discrimination training (Long Evans Hooded rats [2]; [9]): caused learning delays
trials-to-criterion (TTC), odor (OD) and digging medium (MD) simple discrimination training (Long Evans Hooded rats [2]; [9]): caused learning delays
ETC, reacquisition learning (CD-Reacquisition and ID-Reacquisition) (Long Evans Hooded rats [2]; [10]): recovered reacquisition learning performance deficits to rates comparable to Control male rats
TTC, reacquisition learning (CD-Reacquisition and ID-Reacquisition) (Long Evans Hooded rats [2]; [10]): recovered reacquisition learning performance deficits to rates comparable to Control male rats
ASST performance, ETC (Long Evans Hooded rats [2]; male rats, 150 ppm Pb^2+ + 0.05% Taurine, most recovery at CD-Rev and ID): recovered these deficits to performance levels comparative to Control males; also recorded: recovered ASST performance to rates comparable to Control male rats
ASST performance, TTC (Long Evans Hooded rats [2]; male rats, 150 ppm Pb^2+ + 0.05% Taurine, most recovery at CD-Rev, ID, ED): recovered these deficits to performance levels comparative to Control males; also recorded: recovered ASST performance to rates comparable to Control male rats
rate-of-learning cumulative record across ASST stages (Long Evans Hooded rats [2]; single representative female rat): quicker rate-of-learning with less sequential errors
rate-of-learning cumulative record across ASST stages (Long Evans Hooded rats [2]; single representative female rat, listed as taurine): significant improvements
rate-of-learning cumulative record across ASST stages (Long Evans Hooded rats [2]; single representative male rat): quicker rate-of-learning with less sequential errors
rate-of-learning cumulative record across ASST stages (Long Evans Hooded rats [2]; single representative male rat, listed as taurine): significant improvements
Taurine:Dopamine levels [3]: elevated
Pb^2+-induced anxiogenic response in the EPM (Long Evans Hooded rats [1]; 43 mg/Kg i.p. 15-min prior to testing, PND 36-45, both genders): ameliorated in a gender-specific manner
EPM track plot and group mean activity (10-min) (Long Evans Hooded rats [1]; Control (0 ppm) female rats): increased anxiolytic response
EPM track plot and group mean activity (10-min) (Long Evans Hooded rats [1]; Control (0 ppm) male rats): increased anxiolytic response

NCCC(=O)O [TD-101, 3-aminopropanoic acid]
anxiolytic OTC ratio, sensitivity to drug (Long Evans Hooded rats [1]; control female rats): most sensitive
anxiolytic OTC ratio, sensitivity to drug (Long Evans Hooded rats [1]; control male rats): most sensitive
